Data on ten compounds can be found in patent US8063071B2 (GlaxoSmithKline, LLC, priority 2007, dated 2011).

SMILES strings stand for the structures. Counter-ions that a name gives are not always drawn.

Test [1] concerns human monocyte stimulated cytokine production (TNF-α). The test is described as follows: Monocyte assay (LPS-stimulated TNF-α production). Type of test: cell-based. The settings on record: for IC50: 24 h, 200 ng/mL LPS, TNF-α by ELISA; for inhibition at 0.3 µM: read-out: inhibition at 300 nM in the monocyte assay. The essentials: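 Human CD14+ monocytes were purified from blood and plated at 1×10^6 cells/mL in RPMI 1640 with 10% FBS. Compound was added 30 min before stimulation with 200 ng/mL LPS (0.1% DMSO final), followed by 24 hrs at 37 C. Supernatant TNF-α was measured by ELISA, and viability by trypan blue exclusion.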

Test [2] has as its target T1, Recombinant human IKKβ (residues 1-737) (Homo sapiens, UniProt O14920).
T1 construct: Recombinant human IKKβ (residues 1-737); GST (C); made in house
T1 sequence (O14920 1-737): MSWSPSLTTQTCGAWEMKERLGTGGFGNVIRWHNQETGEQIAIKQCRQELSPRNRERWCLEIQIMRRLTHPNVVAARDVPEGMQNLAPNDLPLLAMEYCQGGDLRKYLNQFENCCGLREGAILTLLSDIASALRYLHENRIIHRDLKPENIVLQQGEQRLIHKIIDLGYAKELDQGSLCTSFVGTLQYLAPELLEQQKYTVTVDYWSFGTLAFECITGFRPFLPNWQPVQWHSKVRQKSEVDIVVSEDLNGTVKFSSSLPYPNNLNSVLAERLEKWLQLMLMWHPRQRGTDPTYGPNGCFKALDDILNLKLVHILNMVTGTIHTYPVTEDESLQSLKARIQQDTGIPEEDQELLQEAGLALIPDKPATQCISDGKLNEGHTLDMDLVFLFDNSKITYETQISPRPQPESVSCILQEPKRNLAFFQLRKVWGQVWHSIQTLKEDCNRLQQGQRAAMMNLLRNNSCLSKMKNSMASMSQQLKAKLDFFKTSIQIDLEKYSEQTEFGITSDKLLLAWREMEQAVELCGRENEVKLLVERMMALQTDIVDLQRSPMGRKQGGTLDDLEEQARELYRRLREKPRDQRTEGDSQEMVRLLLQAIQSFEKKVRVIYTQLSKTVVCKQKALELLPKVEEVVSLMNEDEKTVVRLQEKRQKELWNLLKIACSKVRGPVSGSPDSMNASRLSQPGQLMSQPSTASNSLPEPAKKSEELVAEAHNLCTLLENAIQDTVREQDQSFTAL
The test is described as follows: IKK2 assay (TR-FRET). Type of test: biochemical. The settings on record: ATP 1 μM final, read-out: pIC50 against IKK2 (converted). The essentials:
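Baculovirus-expressed C-terminal GST-tagged IKKβ (0.5-5 nM final) in HEPES pH 7.4, MgCl2, CHAPS, DTT, BSA with 1.7% DMSO; 25 nM GST-IB substrate and 1 μM ATP, 15 min at room temperature. EDTA stop; phospho-Ser32/36 detected by Eu-antibody/APC-anti-GST TR-FRET, 665/620 nm ratio.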
(In general: TR-FRET usually uses a lanthanide donor and a delayed reading to cut background.)

With `CCS(=O)(=O)N1CCC(c2c[nH]c3c(C(N)=O)cc(-c4cccc(C5CCCN5C)c4)cc23)CC1` (stereo not drawn) [Example 344, 3-[1-(ethylsulfonyl)-4-piperidinyl]-5-[3-(1-methyl-2-pyrrolidinyl)phenyl]-1H-indole-7-carboxamide trifluoroacetate], the IC50 is not above 1.5 µM in test [1] and not above 10 µM in test [2].
As to `CCS(=O)(=O)N1CCC(c2c[nH]c3c(C(N)=O)cc(-c4cccc(CCNCC(C)C)c4)cc23)CC1` [Example 345, 3-[1-(ethylsulfonyl)-4-piperidinyl]-5-(3-{2-[(2-methylpropyl)amino]ethyl}phenyl)-1H-indole-7-carboxamide trifluoroacetate], the inhibition at 0.3 µM in test [1] lay in the range of 0 to 60%. Also, the IC50 in test [2] is not above 10 µM.
For the compound `CCNCCc1cccc(-c2cc(C(N)=O)c3[nH]cc(C4CCN(S(=O)(=O)CC)CC4)c3c2)c1` [Example 346, 5-{3-[2-(ethylamino)ethyl]phenyl}-3-[1-(ethylsulfonyl)-4-piperidinyl]-1H-indole-7-carboxamide trifluoroacetate], the IC50 is not above 1.5 µM in test [1] and not above 10 µM in test [2].
Take `CCCNCCc1cccc(-c2cc(C(N)=O)c3[nH]cc(C4CCN(S(=O)(=O)CC)CC4)c3c2)c1` [Example 347, 3-[1-(ethylsulfonyl)-4-piperidinyl]-5-{3-[2-(propylamino)ethyl]phenyl}-1H-indole-7-carboxamide trifluoroacetate]: in test [1], the inhibition at 0.3 µM lay in the range of 0 to 60%. The IC50 in test [2] was not above 10 µM.
Consider `CCS(=O)(=O)N1CCC(c2c[nH]c3c(C(N)=O)cc(-c4cccc(CCN(C)C)c4)cc23)CC1` [Example 348, 5-{3-[2-(dimethylamino)ethyl]phenyl}-3-[1-(ethylsulfonyl)-4-piperidinyl]-1H-indole-7-carboxamide trifluoroacetate], for which the IC50 is not above 1.5 µM in test [1] and not above 10 µM in test [2].
`CCCN(CCC)CCc1cccc(-c2cc(C(N)=O)c3[nH]cc(C4CCN(S(=O)(=O)CC)CC4)c3c2)c1` [Example 349, 5-{3-[2-(dipropylamino)ethyl]phenyl}-3-[1-(ethylsulfonyl)-4-piperidinyl]-1H-indole-7-carboxamide trifluoroacetate]: the inhibition at 0.3 µM in test [1] fell in the range of 0 to 60%. The IC50 in test [2] is not above 10 µM.
For `CCS(=O)(=O)N1CCC(c2c[nH]c3c(C(N)=O)cc(-c4cccc(CNCCn5nc(C)cc5C)c4)cc23)CC1` [Example 350, 5-[3-({[2-(3,5-dimethyl-1H-pyrazol-1-yl)ethyl]amino}methyl)phenyl]-3-[1-(ethylsulfonyl)-4-piperidinyl]-1H-indole-7-carboxamide trifluoroacetate] the same measures were 0 to 60% and not above 10 µM.
The like results for `CCS(=O)(=O)N1CCC(c2c[nH]c3c(C(N)=O)cc(-c4csc(CN5CCOCC5)n4)cc23)CC1` [Example 351, 3-[1-(ethylsulfonyl)-4-piperidinyl]-5-[2-(4-morpholinylmethyl)-1,3-thiazol-4-yl]-1H-indole-7-carboxamide trifluoroacetate] were, in that order, 0 to 60% and not above 10 µM.
For `CCS(=O)(=O)N1CCC(c2c[nH]c3c(C(N)=O)cc(-c4csc(CNCC(C)C)n4)cc23)CC1` [Example 352, 3-[1-(ethylsulfonyl)-4-piperidinyl]-5-(2-{[(2-methylpropyl)amino]methyl}-1,3-thiazol-4-yl)-1H-indole-7-carboxamide trifluoroacetate] the same measures were 0 to 60% and not above 10 µM.
For `CCS(=O)(=O)N1CCC(c2c[nH]c3c(C(N)=O)cc(-c4csc(CN5CCCC5)n4)cc23)CC1` [Example 353, 3-[1-(ethylsulfonyl)-4-piperidinyl]-5-[2-(1-pyrrolidinylmethyl)-1,3-thiazol-4-yl]-1H-indole-7-carboxamide], in test [1], the IC50 is not above 1.5 µM and the inhibition at 0.3 µM lay in the range of 0 to 60%. The IC50 in test [2] was not above 10 µM.

The inhibition is the relative decrease from the control value, in per cent.
